Reference: ChEMBL document CHEMBL4507276 (2021)

Experiments:
[1] = molecular target: Sodium-dependent dopamine transporter (Homo sapiens, UniProt Q01959); experiment: DATRANS/H Eurofins-Panlabs selectivity data (BI); settings: Compound concentration 10.0 uM
[2] = molecular target: Ribosomal protein S6 kinase alpha-5 (Homo sapiens) (UniProt O75582); experiment: RPS6KA5 Invitrogen selectivity data (BI); settings: Compound concentration 3.0 uM
[3] = molecular target: Mitogen-activated protein kinase kinase kinase 8 (Homo sapiens) (UniProt P41279); experiment: MAP3K8 Invitrogen selectivity data (BI); settings: Compound concentration 3.0 uM
[4] = molecular target: Serine/threonine-protein kinase Nek4 (Homo sapiens) (UniProt P51957); experiment: NEK4 Invitrogen selectivity data (BI); settings: Compound concentration 3.0 uM
[5] = molecular target: Serine/threonine-protein kinase 24 (Homo sapiens) (UniProt Q9Y6E0); experiment: STK24 Invitrogen selectivity data (BI); settings: Compound concentration 3.0 uM
[6] = test system: Tyrosine-protein kinase ABL1 (Homo sapiens), P00519 [Y253F]; experiment: ABL1 Y253F Invitrogen selectivity data (BI); settings: Compound concentration 3.0 uM
[7] = molecular target: Cannabinoid receptor 2 (Homo sapiens) (UniProt P34972); experiment: CB2/PERIPH/H Cerep selectivity data (BI); settings: Compound concentration 20.0 uM
[8] = molecular target: cGMP-specific 3',5'-cyclic phosphodiesterase (Homo sapiens) (UniProt O76074); experiment: PDE5 Cerep selectivity data (BI); settings: Compound concentration 20.0 uM
[9] = molecular target: High affinity choline transporter 1 (Homo sapiens) (UniProt Q9GZV3); experiment: CHT1/H Cerep selectivity data (BI); settings: Compound concentration 20.0 uM
[10] = molecular target: RAF proto-oncogene serine/threonine-protein kinase (Homo sapiens) (UniProt P04049); experiment: RAF1 Invitrogen selectivity data (BI); settings: Compound concentration 3.0 uM
[11] = molecular target: T1, Alpha-1B adrenergic receptor (Homo sapiens) (UniProt P35368); experiment: ALPHA1B/HU Cerep selectivity data (BI); settings: Compound concentration 20.0 uM
T1 sequence (whole entry): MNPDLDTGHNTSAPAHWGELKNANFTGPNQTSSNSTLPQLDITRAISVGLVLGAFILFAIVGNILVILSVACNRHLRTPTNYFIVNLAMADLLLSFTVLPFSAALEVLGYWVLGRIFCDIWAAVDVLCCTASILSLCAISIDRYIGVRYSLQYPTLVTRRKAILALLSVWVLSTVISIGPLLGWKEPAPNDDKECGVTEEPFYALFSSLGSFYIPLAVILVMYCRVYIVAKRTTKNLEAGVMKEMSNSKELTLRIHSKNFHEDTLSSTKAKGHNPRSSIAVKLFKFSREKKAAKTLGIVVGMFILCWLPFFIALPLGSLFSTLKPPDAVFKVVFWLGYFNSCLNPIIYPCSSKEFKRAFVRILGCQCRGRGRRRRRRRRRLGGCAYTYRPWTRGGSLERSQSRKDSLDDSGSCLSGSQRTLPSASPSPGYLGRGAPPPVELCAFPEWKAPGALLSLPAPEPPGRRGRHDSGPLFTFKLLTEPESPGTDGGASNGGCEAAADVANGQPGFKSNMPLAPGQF

[12] = molecular target: Estrogen receptor (Homo sapiens) (UniProt P03372); experiment: ERALPHA/H Eurofins-Panlabs selectivity data (BI); settings: Compound concentration 10.0 uM
[13] = molecular target: Tyrosine-protein kinase JAK1 (Homo sapiens) (UniProt P23458); experiment: JAK1 Invitrogen selectivity data (BI); settings: Compound concentration 3.0 uM
[14] = molecular target: Non-receptor tyrosine-protein kinase TYK2 (Homo sapiens) (UniProt P29597); experiment: TYK2 Invitrogen selectivity data (BI); settings: Compound concentration 3.0 uM
[15] = molecular target: Sigma non-opioid intracellular receptor 1 (Homo sapiens) (UniProt Q99720); experiment: SIGMA1/HU Eurofins-Panlabs selectivity data (BI); settings: Compound concentration 10.0 uM
[16] = molecular target: Insulin receptor-related protein (Homo sapiens) (UniProt P14616); experiment: INSRR Invitrogen selectivity data (BI); settings: Compound concentration 3.0 uM
[17] = molecular target: T2, 5-hydroxytryptamine receptor 2C (Homo sapiens) (UniProt P28335); experiment: 5HT2CH_AGON Cerep selectivity data (BI); settings: filed as agonist, Compound concentration 20.0 uM
T2 sequence (whole entry): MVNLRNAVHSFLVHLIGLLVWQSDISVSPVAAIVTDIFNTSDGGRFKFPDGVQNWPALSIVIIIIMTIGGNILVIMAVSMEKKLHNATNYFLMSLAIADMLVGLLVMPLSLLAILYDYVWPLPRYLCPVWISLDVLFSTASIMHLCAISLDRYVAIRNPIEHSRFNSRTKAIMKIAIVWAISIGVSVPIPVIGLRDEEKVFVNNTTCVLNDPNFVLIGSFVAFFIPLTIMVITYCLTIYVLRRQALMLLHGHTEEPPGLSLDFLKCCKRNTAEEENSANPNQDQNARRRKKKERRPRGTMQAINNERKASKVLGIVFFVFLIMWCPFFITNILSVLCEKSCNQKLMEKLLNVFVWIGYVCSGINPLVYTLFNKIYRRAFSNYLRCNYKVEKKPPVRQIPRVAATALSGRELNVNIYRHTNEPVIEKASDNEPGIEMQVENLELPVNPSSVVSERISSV

[18] = molecular target: T3, Beta-adrenergic receptor kinase 1 (Homo sapiens) (UniProt P25098); experiment: ADRBK1 Invitrogen selectivity data (BI); settings: Compound concentration 3.0 uM
T3 sequence (whole entry): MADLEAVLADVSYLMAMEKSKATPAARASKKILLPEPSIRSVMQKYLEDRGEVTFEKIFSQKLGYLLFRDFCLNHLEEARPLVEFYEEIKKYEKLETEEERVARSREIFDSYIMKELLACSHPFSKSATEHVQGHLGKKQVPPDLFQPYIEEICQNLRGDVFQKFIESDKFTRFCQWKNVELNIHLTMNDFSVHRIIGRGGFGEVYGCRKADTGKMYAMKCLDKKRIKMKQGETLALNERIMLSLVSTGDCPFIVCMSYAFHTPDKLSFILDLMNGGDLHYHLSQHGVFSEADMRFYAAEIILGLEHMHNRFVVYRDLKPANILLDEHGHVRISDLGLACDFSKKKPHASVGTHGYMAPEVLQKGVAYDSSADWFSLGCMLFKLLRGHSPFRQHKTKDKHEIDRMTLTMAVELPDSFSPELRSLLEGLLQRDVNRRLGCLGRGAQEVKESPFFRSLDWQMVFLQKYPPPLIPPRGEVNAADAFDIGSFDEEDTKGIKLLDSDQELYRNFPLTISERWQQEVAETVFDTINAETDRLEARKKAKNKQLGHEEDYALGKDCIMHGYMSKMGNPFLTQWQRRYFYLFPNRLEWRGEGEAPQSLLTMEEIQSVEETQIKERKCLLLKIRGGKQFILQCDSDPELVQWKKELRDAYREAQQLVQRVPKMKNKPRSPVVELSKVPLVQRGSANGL

[19] = molecular target: Serine/threonine-protein kinase PAK 6 (Homo sapiens) (UniProt Q9NQU5); experiment: PAK6 Invitrogen selectivity data (BI); settings: Compound concentration 3.0 uM

Measured: residual activity

Cannabinoid receptor 2 (Homo sapiens), sequence (P34972 whole entry): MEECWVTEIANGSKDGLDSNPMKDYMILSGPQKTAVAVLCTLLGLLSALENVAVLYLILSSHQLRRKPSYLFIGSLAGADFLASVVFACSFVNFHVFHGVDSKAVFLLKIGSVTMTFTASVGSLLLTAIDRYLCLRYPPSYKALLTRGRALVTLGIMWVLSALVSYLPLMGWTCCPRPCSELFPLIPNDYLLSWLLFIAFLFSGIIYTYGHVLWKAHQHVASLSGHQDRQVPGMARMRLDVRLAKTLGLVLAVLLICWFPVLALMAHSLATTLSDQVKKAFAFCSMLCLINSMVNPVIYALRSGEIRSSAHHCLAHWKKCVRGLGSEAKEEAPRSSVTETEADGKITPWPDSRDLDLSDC
High affinity choline transporter 1 (Homo sapiens), sequence (Q9GZV3 whole entry): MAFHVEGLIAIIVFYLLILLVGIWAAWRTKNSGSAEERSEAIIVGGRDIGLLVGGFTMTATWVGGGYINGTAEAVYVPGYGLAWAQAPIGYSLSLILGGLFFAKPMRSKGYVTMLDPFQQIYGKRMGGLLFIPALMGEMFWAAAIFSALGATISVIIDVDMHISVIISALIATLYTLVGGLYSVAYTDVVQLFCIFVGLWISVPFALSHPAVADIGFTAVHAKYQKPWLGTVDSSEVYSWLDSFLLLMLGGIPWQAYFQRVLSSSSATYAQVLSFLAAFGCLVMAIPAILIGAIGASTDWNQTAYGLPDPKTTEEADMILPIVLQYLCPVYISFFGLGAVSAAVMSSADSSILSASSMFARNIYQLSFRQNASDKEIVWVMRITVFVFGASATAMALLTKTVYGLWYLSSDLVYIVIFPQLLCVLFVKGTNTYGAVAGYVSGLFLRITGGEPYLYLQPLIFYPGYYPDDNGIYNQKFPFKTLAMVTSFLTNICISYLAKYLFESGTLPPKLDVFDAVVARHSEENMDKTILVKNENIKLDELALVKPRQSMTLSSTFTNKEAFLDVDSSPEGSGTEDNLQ
Insulin receptor-related protein (Homo sapiens), sequence (P14616 27-742 limits assumed): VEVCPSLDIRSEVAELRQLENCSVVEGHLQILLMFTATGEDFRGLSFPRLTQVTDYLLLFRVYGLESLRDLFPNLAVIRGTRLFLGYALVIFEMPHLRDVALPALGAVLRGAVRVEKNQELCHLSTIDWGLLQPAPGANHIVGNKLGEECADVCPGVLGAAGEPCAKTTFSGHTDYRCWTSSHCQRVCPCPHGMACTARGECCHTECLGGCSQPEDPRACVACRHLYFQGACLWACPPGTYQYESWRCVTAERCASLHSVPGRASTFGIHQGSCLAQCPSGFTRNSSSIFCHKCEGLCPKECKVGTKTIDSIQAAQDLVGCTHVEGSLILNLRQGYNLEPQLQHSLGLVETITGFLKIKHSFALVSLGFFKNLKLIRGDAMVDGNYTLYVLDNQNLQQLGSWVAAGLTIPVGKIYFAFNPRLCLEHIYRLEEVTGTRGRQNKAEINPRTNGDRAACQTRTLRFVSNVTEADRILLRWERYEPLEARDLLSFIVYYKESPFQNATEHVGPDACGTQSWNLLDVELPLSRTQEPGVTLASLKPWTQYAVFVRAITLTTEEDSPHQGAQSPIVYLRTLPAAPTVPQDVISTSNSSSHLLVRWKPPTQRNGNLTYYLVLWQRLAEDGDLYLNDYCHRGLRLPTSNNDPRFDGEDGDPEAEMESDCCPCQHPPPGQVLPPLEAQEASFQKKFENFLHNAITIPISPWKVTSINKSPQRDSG
Insulin receptor-related protein (Homo sapiens), sequence (P14616 747-1297 limits assumed): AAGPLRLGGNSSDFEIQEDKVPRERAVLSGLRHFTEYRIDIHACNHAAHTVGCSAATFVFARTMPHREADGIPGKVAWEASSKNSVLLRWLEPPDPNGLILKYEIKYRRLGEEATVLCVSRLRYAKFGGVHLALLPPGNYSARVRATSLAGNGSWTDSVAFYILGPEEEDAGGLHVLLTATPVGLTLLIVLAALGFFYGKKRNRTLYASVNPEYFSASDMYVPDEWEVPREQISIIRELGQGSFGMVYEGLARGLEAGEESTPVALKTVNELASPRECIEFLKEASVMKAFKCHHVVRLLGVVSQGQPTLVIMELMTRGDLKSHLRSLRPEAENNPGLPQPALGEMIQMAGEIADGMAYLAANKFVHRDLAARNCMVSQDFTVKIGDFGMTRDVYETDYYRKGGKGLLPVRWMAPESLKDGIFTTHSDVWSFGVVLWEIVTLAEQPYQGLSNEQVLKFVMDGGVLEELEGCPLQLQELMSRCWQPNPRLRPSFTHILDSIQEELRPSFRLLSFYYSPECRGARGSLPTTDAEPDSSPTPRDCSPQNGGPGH
Non-receptor tyrosine-protein kinase TYK2 (Homo sapiens), sequence (P29597 whole entry): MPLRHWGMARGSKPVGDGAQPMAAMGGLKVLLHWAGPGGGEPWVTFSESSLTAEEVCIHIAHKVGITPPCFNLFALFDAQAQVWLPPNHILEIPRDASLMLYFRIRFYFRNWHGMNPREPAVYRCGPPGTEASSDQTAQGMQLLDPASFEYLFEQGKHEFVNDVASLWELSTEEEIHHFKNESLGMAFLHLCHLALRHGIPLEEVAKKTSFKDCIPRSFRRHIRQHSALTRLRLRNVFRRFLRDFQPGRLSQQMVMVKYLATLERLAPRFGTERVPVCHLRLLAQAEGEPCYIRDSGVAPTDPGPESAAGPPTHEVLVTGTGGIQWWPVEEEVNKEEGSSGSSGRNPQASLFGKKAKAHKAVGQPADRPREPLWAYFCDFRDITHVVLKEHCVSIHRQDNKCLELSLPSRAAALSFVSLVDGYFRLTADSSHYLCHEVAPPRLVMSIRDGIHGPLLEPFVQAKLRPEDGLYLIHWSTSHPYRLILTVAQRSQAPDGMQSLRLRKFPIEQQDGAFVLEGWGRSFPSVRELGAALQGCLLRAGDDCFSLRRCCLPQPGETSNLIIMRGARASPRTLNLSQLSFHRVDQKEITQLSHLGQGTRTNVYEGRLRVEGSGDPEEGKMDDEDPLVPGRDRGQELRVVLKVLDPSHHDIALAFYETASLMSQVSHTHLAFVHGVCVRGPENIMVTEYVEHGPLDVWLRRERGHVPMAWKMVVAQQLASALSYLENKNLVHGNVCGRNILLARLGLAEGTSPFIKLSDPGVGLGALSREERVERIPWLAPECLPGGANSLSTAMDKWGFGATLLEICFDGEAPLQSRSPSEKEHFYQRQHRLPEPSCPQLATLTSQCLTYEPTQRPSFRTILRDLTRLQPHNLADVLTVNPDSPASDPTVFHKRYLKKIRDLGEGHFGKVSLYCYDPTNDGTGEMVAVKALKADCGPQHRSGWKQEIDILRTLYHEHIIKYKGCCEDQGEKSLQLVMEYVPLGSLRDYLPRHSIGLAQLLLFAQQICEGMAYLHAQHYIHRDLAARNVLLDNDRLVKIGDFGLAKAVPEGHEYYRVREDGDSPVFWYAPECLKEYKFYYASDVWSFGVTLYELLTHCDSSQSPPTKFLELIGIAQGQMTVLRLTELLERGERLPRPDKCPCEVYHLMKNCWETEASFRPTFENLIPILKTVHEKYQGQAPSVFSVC
Sigma non-opioid intracellular receptor 1 (Homo sapiens), sequence (Q99720 whole entry): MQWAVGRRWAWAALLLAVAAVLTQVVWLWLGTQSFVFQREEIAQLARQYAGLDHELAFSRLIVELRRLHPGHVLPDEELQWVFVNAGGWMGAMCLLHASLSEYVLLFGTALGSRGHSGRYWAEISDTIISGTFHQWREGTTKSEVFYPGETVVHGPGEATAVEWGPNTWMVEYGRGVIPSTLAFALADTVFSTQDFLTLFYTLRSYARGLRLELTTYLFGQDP
Serine/threonine-protein kinase Nek4 (Homo sapiens), sequence (P51957 whole entry, looked up): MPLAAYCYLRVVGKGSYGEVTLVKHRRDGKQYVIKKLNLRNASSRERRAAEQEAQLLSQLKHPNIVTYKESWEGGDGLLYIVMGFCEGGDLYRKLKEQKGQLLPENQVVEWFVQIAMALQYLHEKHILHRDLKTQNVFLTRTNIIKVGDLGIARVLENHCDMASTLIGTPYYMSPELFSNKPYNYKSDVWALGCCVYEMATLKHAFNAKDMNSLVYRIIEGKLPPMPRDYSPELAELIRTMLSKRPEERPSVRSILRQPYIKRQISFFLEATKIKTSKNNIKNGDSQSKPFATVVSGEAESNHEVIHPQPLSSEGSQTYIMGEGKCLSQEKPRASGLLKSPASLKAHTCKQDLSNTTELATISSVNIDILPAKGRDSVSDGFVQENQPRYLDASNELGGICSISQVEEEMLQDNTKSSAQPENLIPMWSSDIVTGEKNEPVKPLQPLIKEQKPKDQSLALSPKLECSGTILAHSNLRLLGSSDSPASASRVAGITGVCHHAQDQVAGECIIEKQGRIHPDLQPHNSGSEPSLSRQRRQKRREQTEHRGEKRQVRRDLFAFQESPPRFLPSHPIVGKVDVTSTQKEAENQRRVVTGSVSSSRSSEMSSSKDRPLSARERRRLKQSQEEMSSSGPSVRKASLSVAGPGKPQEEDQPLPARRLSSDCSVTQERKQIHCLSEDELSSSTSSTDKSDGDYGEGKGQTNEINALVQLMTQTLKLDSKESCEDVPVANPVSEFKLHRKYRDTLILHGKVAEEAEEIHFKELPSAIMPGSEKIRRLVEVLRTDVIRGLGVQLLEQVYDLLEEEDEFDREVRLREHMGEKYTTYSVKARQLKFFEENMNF
Serine/threonine-protein kinase 24 (Homo sapiens), sequence (Q9Y6E0 whole entry, looked up): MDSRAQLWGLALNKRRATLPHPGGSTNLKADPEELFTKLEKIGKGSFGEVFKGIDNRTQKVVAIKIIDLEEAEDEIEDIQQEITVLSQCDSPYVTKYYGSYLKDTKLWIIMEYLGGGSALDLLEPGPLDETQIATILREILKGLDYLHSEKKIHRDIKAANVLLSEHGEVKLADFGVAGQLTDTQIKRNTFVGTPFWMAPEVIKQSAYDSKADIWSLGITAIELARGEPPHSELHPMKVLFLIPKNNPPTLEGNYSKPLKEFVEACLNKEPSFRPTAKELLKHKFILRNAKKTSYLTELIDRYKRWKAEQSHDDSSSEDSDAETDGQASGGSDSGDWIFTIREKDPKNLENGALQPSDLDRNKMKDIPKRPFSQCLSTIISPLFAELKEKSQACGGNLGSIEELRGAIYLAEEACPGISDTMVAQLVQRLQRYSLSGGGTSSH

CN(C)C(=O)Cn1cc(-c2nc([C@@](C)(c3ccc(-c4cnc(N)nc4)cc3)C3CC3)no2)cn1 [BI 665915]
inactive: [1] 95% | [2] 97.5% | [3] 93.5% | [4] 97% | [5] 100% | [6] 80% | [7] 93% | [8] 89% | [9] 101% | [10] 97% | [11] 120% | [12] 85% | [13] 100% | [14] 97.5% | [15] 108% | [16] 96% | [17] 90% | [18] 98.5% | [19] 93.5%
